Activity calls are given as the source filed them.
Key:
Cytochrome P450 3A4 = Cytochrome P450 3A4 (Homo sapiens, UniProt P08684); details: Potency;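 further: confirmatory qHTS run detecting inhibitors and substrates of CYP3A4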
[1] = molecular target: T1, Luciferin 4-monooxygenase (Photinus pyralis, UniProt P08659); test: Counter Screen for Luciferase-based Assay Positives. [Related pubchem assays: 620, 618, 411 ]
HT-1080 = test: cytotoxicity in HT1080 fibrosarcoma cells, cell-based, fluorescence readout (AID 620); assay type: functional; details: Homo sapiens
[2] = LGR2 antagonists, dose response, cell-based, HEK293, CRE-luciferase reporter, cherry pick, set 2 (AID 743343); assay type: functional;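 further: transfected cells were stimulated with diluted bursicon conditioned medium after compound addition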
[3] = MC4R antagonists, dose response, counter-screen for LGR2 antagonist project, cell-based, plate reader, cherry pick (AID 743444); assay type: functional;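 further: transfected HEK 293 cells stimulated with alpha-MSH peptide; potency of inhibitors of the alpha-MSH evoked signal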
[4] = molecular target: T2, RNA-binding protein pos-1 (Caenorhabditis elegans, UniProt G5EF15); test: inhibitors of POS-1/mex-3 RNA binding, dose response, biochemical, fluorescence polarization (AID 1964);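 further: purified POS-1 fused to maltose binding protein made in E. coli; potency of compounds blocking POS-1 binding to fluorescent RNA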
T2 sequence (G5EF15 whole entry): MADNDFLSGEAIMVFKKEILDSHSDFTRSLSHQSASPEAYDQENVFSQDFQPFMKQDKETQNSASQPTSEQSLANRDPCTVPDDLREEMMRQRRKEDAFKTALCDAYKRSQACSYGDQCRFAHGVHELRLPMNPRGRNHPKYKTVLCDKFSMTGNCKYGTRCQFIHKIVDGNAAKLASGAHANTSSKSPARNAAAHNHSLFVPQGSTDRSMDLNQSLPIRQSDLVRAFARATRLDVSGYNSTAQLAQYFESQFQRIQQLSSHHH

[5] = molecular target: T3, Zinc finger protein mex-5 (Caenorhabditis elegans, UniProt Q9XUB2); test: MEX-5/TCR-2 RNA interaction inhibitors, dose response, biochemical, C. elegans, fluorescence polarization (AID 1960)
T3 sequence (Q9XUB2 whole entry): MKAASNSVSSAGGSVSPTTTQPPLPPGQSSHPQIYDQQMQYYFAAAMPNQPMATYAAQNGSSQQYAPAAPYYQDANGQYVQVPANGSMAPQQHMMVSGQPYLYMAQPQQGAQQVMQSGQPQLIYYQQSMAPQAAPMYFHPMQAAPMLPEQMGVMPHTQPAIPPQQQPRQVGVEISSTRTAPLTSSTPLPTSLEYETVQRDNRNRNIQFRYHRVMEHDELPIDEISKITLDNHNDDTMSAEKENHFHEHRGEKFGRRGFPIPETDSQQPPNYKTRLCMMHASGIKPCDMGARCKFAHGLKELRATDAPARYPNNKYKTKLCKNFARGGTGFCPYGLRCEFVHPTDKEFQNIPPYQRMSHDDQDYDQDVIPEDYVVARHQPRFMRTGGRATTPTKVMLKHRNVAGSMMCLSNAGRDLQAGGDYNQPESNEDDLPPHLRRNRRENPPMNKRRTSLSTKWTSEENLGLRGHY

[6] = molecular target: T1, Luciferin 4-monooxygenase; test: firefly luciferase enzyme inhibitors, dose response, biochemical, luminescence (AID 1891)
[7] = Luminescence Cell-Based Dose Confirmation HTS to Identify Inhibitors of Platelet Dense Granule Release. [Related pubchem assays: 1663 (Primary HTS), 1678 (Summary of Project)]; assay type: functional
HeLa = test: HeLa cell cytotoxicity, dose response, cytotoxicity control, 24 h, cherry-picked samples (AID 504726); assay type: functional, cell-based; details: Homo sapiens;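 further: potency for cytotoxicity as loss of luminescence signal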
[8] = molecular target: T4, Lysine-specific demethylase 4C (Homo sapiens, UniProt Q9H3R0); test: GASC-1 (JMJD2C) histone demethylase inhibitors, dose response, biochemical, DELFIA europium, cherry-picked samples (AID 488835); assay type: functional
T4 sequence (Q9H3R0 whole entry): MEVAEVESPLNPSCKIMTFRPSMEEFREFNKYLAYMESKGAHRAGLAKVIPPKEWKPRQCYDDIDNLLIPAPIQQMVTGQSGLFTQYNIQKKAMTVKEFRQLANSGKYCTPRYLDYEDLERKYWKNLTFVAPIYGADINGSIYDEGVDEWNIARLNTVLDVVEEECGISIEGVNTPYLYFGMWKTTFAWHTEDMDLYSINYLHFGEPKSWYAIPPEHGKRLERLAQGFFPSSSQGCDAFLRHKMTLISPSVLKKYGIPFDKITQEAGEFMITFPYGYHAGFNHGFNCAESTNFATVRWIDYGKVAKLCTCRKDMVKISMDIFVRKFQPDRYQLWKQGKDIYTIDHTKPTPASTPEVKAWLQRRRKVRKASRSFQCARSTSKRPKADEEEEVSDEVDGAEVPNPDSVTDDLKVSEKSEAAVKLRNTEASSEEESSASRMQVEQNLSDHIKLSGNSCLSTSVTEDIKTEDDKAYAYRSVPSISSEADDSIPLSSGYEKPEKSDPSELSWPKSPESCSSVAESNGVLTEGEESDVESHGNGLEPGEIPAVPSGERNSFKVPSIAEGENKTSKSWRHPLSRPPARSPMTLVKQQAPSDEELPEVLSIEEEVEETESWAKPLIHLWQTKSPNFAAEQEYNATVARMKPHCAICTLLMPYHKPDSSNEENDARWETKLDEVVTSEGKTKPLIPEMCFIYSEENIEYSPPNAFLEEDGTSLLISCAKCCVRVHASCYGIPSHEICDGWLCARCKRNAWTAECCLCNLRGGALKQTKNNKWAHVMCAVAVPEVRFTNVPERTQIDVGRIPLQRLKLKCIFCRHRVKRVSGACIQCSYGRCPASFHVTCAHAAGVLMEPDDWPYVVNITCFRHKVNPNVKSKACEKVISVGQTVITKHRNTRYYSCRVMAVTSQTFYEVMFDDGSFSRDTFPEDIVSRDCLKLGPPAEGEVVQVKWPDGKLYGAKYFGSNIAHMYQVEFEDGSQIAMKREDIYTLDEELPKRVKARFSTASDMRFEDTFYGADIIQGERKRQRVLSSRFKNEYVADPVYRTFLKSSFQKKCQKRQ

[9] = inhibitors of firefly luciferase expression or activity, dose response, H4 neuroglioma cells, luminescence (AID 1990); assay type: functional, cell-based
[10] = Luminescence Cell-Based Dose Response HTS to Identify Inhibitors of 5'UTR Stem-Loop Driven Prion Protein mRNA Translation in H4 Neuroglioblastoma Cells. [Related pubchem assays: 1827 (Project Summary), 1813 (Primary HTS)]; assay type: functional
[11] = inhibitors of SNCA 5'UTR-driven reporter translation, confirmation, H4 neuroglioma cells, luminescence (AID 1988); assay type: functional, cell-based
[12] = cytotoxicity in HPDE-C7 cells, cell-based, fluorescence, HTS (AID 430); assay type: functional; details: Homo sapiens
[13] = microbe, parasite or virus in culture; assay type: functional; details: Mycobacterium tuberculosis
[14] = cytotoxicity in KRAS-transformed pancreatic duct cells, primary screen, cell-based, fluorescence, HTS (AID 431); assay type: functional; details: Homo sapiens;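 further: cell line used: HPDE-C7K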
[15] = growth suppression of PTEN-null colon cells, dose response, cell-based, HCT116 PTEN knockout (AID 1047); assay type: functional;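 further: HCT116 colon tumor cells with PTEN knocked out; cells exposed to compound for 60 hours before readout; potency for loss of cell viability measured by luminescence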
[16] = growth suppression of beta-catenin-knockout colon cells, dose response, cell-based, HCT116, human colon tumor (AID 1045); assay type: functional;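 further: HCT116 colon tumor cells with beta catenin knocked out; cells exposed to compound for 60 hours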
[17] = cytotoxicity in HEK-293T cells, dose response, cytotoxicity control for BCR NF-kB inhibitor project, luminescence, B-cell screen hits (AID 489021); assay type: functional, cell-based;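 further: HEK-293T cells carrying an NF-kB luciferase reporter; cells exposed to compound for about 14 hours before viability readout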
Vero = Vero cell cytotoxicity, cytotoxicity control for flavivirus capping enzyme inhibitors (AID 588742); assay type: functional; details: Chlorocebus sabaeus
[18] = molecular target: Peroxisome proliferator-activated receptor gamma/Nuclear receptor coactivator 2 (Homo sapiens, UniProt P37231); assay type: functional;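 further: agonist potency for raising coactivator recruitment to the receptor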
Chain of Peroxisome proliferator-activated receptor gamma/Nuclear receptor coactivator 2 (P37231 whole entry): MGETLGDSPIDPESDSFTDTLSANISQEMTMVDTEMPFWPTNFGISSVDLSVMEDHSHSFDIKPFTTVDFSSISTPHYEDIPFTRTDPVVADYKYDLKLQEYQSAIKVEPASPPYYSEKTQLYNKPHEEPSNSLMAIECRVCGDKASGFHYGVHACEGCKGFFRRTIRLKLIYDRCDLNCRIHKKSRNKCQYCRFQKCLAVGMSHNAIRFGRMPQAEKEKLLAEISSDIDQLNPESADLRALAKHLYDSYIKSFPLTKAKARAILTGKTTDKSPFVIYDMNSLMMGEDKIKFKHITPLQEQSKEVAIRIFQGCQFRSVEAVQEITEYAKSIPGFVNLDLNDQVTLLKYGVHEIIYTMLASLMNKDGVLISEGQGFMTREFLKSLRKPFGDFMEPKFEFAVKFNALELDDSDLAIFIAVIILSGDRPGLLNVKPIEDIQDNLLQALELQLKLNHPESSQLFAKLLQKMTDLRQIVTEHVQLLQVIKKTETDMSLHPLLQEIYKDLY
Chain of Peroxisome proliferator-activated receptor gamma/Nuclear receptor coactivator 2 (Q15596 whole entry, further chain): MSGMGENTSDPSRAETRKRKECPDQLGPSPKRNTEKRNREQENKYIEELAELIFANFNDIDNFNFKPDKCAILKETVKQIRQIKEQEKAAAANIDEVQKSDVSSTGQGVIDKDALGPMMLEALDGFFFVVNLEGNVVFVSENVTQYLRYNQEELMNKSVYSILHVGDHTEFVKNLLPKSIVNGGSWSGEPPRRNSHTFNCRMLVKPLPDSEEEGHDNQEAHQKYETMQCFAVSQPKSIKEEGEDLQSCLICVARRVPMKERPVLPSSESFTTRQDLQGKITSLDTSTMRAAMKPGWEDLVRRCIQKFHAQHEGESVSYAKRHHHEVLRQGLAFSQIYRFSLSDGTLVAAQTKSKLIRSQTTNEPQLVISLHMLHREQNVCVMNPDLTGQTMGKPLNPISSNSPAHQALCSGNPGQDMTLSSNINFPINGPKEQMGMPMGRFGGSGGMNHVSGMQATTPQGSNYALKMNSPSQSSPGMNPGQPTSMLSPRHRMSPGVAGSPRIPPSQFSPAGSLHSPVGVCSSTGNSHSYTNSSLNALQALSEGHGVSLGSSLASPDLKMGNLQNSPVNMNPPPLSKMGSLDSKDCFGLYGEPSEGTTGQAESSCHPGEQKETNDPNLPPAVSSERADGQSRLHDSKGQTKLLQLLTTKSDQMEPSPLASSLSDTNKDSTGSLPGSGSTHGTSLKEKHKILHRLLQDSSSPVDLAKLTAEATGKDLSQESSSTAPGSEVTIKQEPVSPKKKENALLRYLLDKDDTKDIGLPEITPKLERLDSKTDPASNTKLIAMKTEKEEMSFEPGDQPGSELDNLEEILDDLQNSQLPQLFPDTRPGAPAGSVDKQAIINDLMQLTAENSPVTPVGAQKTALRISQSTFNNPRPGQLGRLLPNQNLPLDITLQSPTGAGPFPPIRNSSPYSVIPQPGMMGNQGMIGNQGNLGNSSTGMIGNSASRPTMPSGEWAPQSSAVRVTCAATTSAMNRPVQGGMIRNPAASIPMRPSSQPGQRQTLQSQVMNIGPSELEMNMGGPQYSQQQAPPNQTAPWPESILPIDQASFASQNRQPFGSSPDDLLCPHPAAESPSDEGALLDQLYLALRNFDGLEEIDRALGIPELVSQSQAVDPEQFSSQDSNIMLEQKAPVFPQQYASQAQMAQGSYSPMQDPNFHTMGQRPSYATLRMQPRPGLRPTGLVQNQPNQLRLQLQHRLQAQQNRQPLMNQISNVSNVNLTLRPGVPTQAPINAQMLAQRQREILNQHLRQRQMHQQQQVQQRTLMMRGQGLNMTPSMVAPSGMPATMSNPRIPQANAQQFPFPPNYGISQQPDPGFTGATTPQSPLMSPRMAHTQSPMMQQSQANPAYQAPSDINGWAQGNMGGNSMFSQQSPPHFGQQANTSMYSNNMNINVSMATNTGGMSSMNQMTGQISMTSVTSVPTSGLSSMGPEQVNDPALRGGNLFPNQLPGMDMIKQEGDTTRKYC

[19] = molecular target: Peroxisome proliferator-activated receptor gamma/Nuclear receptor coactivator 1 (Homo sapiens, UniProt P37231); assay type: functional;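 further: agonist potency as compounds enhance coactivator SRC-1 recruitment to PPARgamma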
Chain of Peroxisome proliferator-activated receptor gamma/Nuclear receptor coactivator 1 (P37231 whole entry): as the sequence (P37231 whole entry) above
Chain of Peroxisome proliferator-activated receptor gamma/Nuclear receptor coactivator 1 (Q15788 whole entry, further chain): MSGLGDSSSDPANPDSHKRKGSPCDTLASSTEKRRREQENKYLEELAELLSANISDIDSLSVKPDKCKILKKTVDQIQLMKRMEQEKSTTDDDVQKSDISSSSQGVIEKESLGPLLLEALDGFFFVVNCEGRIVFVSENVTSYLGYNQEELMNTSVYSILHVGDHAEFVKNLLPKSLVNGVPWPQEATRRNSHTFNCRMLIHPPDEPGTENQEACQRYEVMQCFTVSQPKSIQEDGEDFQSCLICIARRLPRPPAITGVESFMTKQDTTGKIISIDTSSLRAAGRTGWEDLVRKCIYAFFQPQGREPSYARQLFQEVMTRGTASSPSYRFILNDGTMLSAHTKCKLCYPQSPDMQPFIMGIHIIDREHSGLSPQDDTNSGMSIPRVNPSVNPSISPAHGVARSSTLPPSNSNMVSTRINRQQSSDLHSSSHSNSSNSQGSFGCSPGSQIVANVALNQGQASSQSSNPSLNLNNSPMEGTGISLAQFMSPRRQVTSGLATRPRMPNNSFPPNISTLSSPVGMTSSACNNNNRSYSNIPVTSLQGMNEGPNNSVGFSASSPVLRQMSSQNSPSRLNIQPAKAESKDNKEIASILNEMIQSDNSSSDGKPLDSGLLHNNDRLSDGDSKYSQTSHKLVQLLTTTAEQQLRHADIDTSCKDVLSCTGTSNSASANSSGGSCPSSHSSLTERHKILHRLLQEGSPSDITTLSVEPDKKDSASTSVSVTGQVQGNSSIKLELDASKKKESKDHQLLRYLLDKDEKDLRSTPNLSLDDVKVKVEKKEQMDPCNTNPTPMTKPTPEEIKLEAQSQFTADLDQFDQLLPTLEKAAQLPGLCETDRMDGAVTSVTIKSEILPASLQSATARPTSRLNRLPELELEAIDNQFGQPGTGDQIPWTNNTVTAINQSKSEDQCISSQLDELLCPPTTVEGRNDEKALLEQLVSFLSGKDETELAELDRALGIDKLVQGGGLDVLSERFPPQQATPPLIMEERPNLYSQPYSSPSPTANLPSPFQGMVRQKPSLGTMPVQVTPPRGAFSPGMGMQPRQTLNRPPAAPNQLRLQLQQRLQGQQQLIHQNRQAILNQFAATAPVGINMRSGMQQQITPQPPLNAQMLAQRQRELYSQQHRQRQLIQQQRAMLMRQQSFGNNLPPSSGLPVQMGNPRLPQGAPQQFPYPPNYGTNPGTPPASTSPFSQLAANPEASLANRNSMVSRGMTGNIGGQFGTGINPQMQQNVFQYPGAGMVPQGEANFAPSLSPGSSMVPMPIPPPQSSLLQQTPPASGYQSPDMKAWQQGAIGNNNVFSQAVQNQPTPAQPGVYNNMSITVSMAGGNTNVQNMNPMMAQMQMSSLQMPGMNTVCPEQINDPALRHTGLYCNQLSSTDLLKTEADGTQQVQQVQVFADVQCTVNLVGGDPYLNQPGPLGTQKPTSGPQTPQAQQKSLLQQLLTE

[20] = molecular target: Peroxisome proliferator-activated receptor gamma/Nuclear receptor coactivator 3 (Homo sapiens, UniProt P37231); assay type: functional;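 further: agonist potency for raising coactivator recruitment to the receptor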
ORF 73 = molecular target: T5, ORF 73 (Human herpesvirus 8, UniProt O40947); test: inhibitors of C-LANA binding to LBS DNA, dose response, biochemical, fluorescence polarization, cherry-picked samples (AID 504725); parameters: species or system Human gammaherpesvirus 8;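 further: fluorescence polarization of a labeled DNA duplex reporting LANA DNA binding; potency is for inhibitors that block LANA binding to the DNA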
T5 sequence (O40947 whole entry): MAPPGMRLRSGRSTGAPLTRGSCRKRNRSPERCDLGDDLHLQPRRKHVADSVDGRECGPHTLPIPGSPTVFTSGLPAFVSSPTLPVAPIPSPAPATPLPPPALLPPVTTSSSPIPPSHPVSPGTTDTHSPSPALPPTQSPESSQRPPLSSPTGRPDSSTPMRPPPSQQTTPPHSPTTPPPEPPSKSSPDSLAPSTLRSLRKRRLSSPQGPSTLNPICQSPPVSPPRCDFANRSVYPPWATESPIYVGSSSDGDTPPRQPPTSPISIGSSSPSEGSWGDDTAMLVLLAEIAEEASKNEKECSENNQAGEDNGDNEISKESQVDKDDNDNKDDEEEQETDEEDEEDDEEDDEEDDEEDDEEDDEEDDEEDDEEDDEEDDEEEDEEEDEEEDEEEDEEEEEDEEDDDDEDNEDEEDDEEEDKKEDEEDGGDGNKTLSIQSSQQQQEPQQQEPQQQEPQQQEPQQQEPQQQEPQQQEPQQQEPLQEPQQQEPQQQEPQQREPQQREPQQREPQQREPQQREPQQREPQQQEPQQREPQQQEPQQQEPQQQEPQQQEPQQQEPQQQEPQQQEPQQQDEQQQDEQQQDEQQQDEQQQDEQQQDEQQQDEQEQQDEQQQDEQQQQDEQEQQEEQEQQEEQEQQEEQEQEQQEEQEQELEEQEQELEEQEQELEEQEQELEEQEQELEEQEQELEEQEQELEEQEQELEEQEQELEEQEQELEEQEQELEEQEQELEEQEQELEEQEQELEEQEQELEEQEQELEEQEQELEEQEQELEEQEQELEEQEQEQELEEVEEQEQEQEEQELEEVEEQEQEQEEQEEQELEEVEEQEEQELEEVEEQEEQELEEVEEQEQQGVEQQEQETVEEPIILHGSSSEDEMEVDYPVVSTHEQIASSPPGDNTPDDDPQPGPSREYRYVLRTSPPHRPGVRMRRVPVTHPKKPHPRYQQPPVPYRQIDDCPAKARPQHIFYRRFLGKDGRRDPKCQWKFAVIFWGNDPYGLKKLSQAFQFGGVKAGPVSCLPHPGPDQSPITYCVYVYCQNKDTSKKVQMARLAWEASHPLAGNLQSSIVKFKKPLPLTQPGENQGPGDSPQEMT

[21] = molecular target: T6, Endoribonuclease toxin MazF (Escherichia coli K-12, UniProt P0AE70); test: MazF toxin RNase activators, dose response, biochemical, fluorescence, single-stranded RNA substrate, uHTS hits (AID 588481); assay type: functional
T6 sequence (P0AE70 whole entry): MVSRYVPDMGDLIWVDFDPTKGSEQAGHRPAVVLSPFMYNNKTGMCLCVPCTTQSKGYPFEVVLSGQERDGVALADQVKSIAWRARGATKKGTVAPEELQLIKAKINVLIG

[22] = molecular target: T6, Endoribonuclease toxin MazF; test: fluorescent RNA oligo signal without MazF, dose response, counter-screen for MazEF activator project, biochemical, fluorescence, single-stranded RNase substrate (AID 588502); assay type: functional
[23] = molecular target: T7, Corticotropin-releasing factor receptor 2/Corticotropin-releasing factor-binding protein (Homo sapiens, UniProt P24387+Q13324); test: activators of CRF receptor 2 with binding protein – uHTS hits, confirmation (AID 602473); assay type: functional; details: read-out: EC50_Mean
T7 sequence (Q13324 whole entry): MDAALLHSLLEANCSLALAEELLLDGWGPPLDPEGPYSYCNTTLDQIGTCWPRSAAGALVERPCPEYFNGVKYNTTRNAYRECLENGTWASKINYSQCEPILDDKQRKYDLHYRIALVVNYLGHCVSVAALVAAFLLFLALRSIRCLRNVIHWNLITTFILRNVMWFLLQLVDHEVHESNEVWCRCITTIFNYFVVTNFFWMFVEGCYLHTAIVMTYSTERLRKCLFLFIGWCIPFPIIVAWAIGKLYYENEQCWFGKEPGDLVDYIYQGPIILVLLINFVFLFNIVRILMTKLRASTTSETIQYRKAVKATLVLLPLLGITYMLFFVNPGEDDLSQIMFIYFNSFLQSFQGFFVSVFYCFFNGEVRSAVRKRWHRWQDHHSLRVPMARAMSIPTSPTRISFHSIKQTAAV
T7 sequence (P24387 whole entry): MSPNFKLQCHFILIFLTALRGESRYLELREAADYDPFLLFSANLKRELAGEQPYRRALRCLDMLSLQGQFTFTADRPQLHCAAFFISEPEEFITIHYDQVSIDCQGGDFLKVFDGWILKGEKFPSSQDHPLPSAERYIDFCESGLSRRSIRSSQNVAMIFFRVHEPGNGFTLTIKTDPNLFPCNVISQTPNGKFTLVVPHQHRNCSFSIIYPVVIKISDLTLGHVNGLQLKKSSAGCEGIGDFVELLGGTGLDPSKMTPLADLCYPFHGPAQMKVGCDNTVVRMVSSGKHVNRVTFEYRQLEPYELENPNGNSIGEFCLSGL

T1 sequence (P08659 whole entry): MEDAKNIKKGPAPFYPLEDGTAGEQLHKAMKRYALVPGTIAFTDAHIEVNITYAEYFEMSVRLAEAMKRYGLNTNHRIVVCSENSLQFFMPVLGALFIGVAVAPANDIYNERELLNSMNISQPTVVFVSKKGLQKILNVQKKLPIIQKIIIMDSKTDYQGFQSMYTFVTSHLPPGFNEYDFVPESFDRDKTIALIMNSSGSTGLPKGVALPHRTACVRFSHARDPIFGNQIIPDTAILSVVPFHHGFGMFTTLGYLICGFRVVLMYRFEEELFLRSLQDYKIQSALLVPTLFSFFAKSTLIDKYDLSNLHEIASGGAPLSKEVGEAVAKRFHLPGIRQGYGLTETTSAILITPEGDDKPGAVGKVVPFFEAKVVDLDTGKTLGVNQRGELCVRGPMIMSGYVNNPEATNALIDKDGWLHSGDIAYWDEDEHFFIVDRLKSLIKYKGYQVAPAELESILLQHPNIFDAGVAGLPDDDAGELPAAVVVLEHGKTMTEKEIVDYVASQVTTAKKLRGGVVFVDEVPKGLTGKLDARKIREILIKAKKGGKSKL
Chain of Cytochrome P450 3A4 (P08684 whole entry): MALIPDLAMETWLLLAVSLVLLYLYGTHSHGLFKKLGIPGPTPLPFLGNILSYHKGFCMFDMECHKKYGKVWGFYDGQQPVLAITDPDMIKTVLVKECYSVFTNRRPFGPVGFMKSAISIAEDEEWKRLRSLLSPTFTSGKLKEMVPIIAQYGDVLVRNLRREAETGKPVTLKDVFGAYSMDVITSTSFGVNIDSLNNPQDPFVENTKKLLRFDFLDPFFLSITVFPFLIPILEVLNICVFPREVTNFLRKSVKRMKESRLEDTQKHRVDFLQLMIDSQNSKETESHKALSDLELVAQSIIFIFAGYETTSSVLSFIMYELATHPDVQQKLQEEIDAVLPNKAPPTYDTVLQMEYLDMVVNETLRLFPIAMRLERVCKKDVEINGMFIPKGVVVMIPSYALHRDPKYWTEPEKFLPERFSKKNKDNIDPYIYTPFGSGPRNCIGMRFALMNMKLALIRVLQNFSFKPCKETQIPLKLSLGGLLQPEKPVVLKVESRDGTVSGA

## C[C@@H]1CCC2[C@](C)(CO)C(O)CC[C@@]2(C)[C@@]12CC[C@](CO)(CCO)O2 (some centres undefined)
Cytochrome P450 3A4
  AC50: 25.1 µM (inconclusive)

## Oc1ccc(Cl)c(Cl)c1Cl
Cytochrome P450 3A4
  AC50: 15.8 µM (inconclusive)

## CCCCCc1ccc(-c2ccc(C(=O)O)cc2)nc1
[1]
  EC50: 43.4 µM (active)
HT-1080
  EC50: > 50 µM (not active)
[2]
  AC50: 13.9 µM (active)
[3]
  AC50: 14.1 µM (active)

## Cc1cc(NS(=O)(=O)c2ccc(Nc3nc(-c4sc(N)nc4C)cs3)cc2)no1
[4]
  EC50: 9.62 µM (active)
[5]
  EC50: 7.76 µM (active)
[6]
  EC50: > 112 µM (not active)
[7]
  EC50: > 112 µM (not active)
HeLa
  AC50: 52.4 µM (active)
[8]
  AC50: 8.48 µM (active)

## CC1CC(C)(C)Nc2ccc(OC(=O)c3ccco3)cc21 (centres undefined)
[9]
  EC50: 8.25 µM (active)
[1]
  EC50: < 0.2 µM (active)
[10]
  EC50: 14.8 µM (active)
[11]
  EC50: 20.1 µM (active)
[12]
  EC50: 10.1 µM (active)
[13]
  CC50: 30 µM (active)
[14]
  EC50: 9.77 µM (active)
[15]
  EC50: 8.58 µM (active)
HT-1080
  EC50: > 50 µM (not active)
[16]
  EC50: 8.18 µM (active)
[17]
  IC50: 50.9 µM (inactive)
Vero
  CC50: > 40 µM (active)

## Clc1ccc(-c2nnc3sc(-c4ccc(Br)o4)nn23)cc1
[18]
  EC50: 39.7 µM (not active)
[19]
  EC50: > 79.4 µM (not active)
[20]
  EC50: > 79.4 µM (not active)
ORF 73
  AC50: 27.1 µM (active)
[21]
  EC50: > 99 µM (inactive)
[22]
  EC50: > 99 µM (inactive)
[23]
  EC50: > 53 µM (inactive)

## CN(C)S(=O)(=O)c1cccc(N2C(=O)CC3(CCCCC3)CC2=O)c1
HeLa
  AC50: > 350 µM (inactive)
ORF 73
  AC50: 76.9 µM (active)

## CC(C)=CCC1=C(O)C(=O)c2ccccc2C1=O [LAPACHOL]
Cytochrome P450 3A4
  AC50: 25.1 µM (inconclusive)
